This assay addresses T1, cytochrome bd-type quinol oxidase (cytochrome bd) (Mycolicibacterium smegmatis, UniProt A0QXA8).
T1 construct: gene MSMEG_3233; native enzyme in inverted membrane vesicles of the ΔqcrCAB :: hyg strain (cytochrome bd as the only respiratory branch); with CydB (cytochrome bd subunit)
Briefly: NADH-driven oxygen consumption of inverted membrane vesicles (Clark-type electrode), wild-type versus bc1-knockout strain. Format: biochemical.

The term IC50 denotes the concentration that inhibits the measured activity by half.

In turn, `CC(C)=CCC/C(C)=C/CC/C(C)=C/Cc1c(C)[nH]c2ccccc2c1=O` [aurachin D] displayed a half-inhibitory concentration (IC50) of roughly 400 nM.

These data come from article PMC4450806, “The cytochrome bd-type quinol oxidase is important for survival of Mycobacterium smegmatis under peroxide and antibiotic-induced stress” (Scientific Reports, 2015).
